The supplement of paper PMC10307832

How the values were obtained:
Assay in all cases: relative viability (nuclei count vs DMSO), 5 days (fraction); higher = more cells survive
[1] = compound: OCc1c[nH]c2ccccc12 [Indole-3-carbinol] + CC(C)C[C@H](NC(=O)[C@H](Cc1ccccc1)NC(=O)c1cnccn1)B(O)O [Bortezomib] (partner 0.002 µM)
How it was run: (§1)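 Dosing by pin tool came one day after lung cancer cell lines were seeded in 1536-well plates, using either one drug or a fixed anchor-drug dose plus five library-drug doses (not always all listed) in √10 steps. After 5 days, nuclei were counted on 4× images. Relative viability is treated-well nuclei count divided by vehicle-well nuclei count, and values are medians of duplicate plates.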

[2] = compound: OCc1c[nH]c2ccccc12 [Indole-3-carbinol] + N=C(N)NC(=N)NCCc1ccccc1 [Phenformin] (partner 250 µM)
How it was run: as §1

[3] = compound: OCc1c[nH]c2ccccc12 [Indole-3-carbinol] + Nc1ncn([C@H]2C[C@H](O)[C@@H](CO)O2)c(=O)n1 [Decitabine] (partner 2 µM)
How it was run: as §1

[4] = compound: OCc1c[nH]c2ccccc12 [Indole-3-carbinol] + C[C@]1(O)C[C@@H](c2nc(-c3ccc4ccc(-c5ccccc5)nc4c3)c3c(N)nccn32)C1 [Linsitinib] (partner 1 µM)
How it was run: as §1

[5] = compound: OCc1c[nH]c2ccccc12 [Indole-3-carbinol] + NC(=O)Nc1cc(-c2cccc(F)c2)sc1C(=O)N[C@H]1CCCNC1 [AZD7762] (partner 0.2 µM)
How it was run: as §1

Q: How did the relative viability ([1]; first compound 0.253 µM) turn out when NCI-H1650 was run?
A: 0.19

Q: And the relative viability ([1]; first compound 0.8 µM)?
A: 0.192

Q: What about the relative viability ([1]; first compound 2.53 µM) of the same cell line?
A: 0.207

Q: What about the relative viability ([1]; first compound 8 µM) of the same cell line?
A: 0.194

Q: And the relative viability ([2]; first compound 0.253 µM)?
A: 0.42

Q: What about the relative viability ([2]; first compound 2.53 µM) of the same cell line?
A: 0.462

Q: And the relative viability ([2]; first compound 8 µM)?
A: 0.356

Q: What about the relative viability ([3]; first compound 0.253 µM) of the same cell line?
A: 0.412

Q: And the relative viability ([3]; first compound 0.8 µM)?
A: 0.352

Q: What about the relative viability ([3]; first compound 2.53 µM) of the same cell line?
A: 0.493

Q: What about the relative viability ([3]; first compound 8 µM) of the same cell line?
A: 0.34

Q: What does the source list for NCI-H1793?
A: relative viability ([4]; first compound 0.253 µM): 0.932; relative viability ([4]; first compound 0.8 µM): 0.898; relative viability ([4]; first compound 2.53 µM): 1.08; relative viability ([4]; first compound 8 µM): 0.927; relative viability ([2]; first compound 0.253 µM): 0.438; relative viability ([2]; first compound 0.8 µM): 0.409; relative viability ([2]; first compound 2.53 µM): 0.499; relative viability ([2]; first compound 8 µM): 0.339; relative viability ([5]; first compound 0.253 µM): 0.424; relative viability ([5]; first compound 0.8 µM): 0.468; relative viability ([5]; first compound 2.53 µM): 0.507; relative viability ([5]; first compound 8 µM): 0.455; relative viability ([3]; first compound 0.253 µM): 0.502; relative viability ([3]; first compound 0.8 µM): 0.465; relative viability ([3]; first compound 2.53 µM): 0.472; relative viability ([3]; first compound 8 µM): 0.479

Q: Which relative viability ([4]; first compound 0.253 µM) does the source give for NCI-H1944 here?
A: 1.27

Q: What about the relative viability ([4]; first compound 0.8 µM) of the same cell line?
A: 1.1

Q: What about the relative viability ([4]; first compound 2.53 µM) of the same cell line?
A: 1.17

Q: What about the relative viability ([4]; first compound 8 µM) of the same cell line?
A: 1.17

Q: What about the relative viability ([2]; first compound 0.253 µM) of the same cell line?
A: 0.202

Q: And the relative viability ([2]; first compound 0.8 µM)?
A: 0.195

Q: What about the relative viability ([2]; first compound 2.53 µM) of the same cell line?
A: 0.202

Q: And the relative viability ([2]; first compound 8 µM)?
A: 0.199

Q: What about the relative viability ([5]; first compound 0.253 µM) of the same cell line?
A: 0.517

Q: And the relative viability ([5]; first compound 0.8 µM)?
A: 0.441

Q: And the relative viability ([5]; first compound 2.53 µM)?
A: 0.509

Q: What about the relative viability ([5]; first compound 8 µM) of the same cell line?
A: 0.54

Q: What about the relative viability ([3]; first compound 0.253 µM) of the same cell line?
A: 0.46

Q: And the relative viability ([3]; first compound 0.8 µM)?
A: 0.456

Q: And the relative viability ([3]; first compound 2.53 µM)?
A: 0.441

Q: And the relative viability ([3]; first compound 8 µM)?
A: 0.404

Q: Which results are given for NCI-H2009?
A: relative viability ([1]; first compound 0.253 µM): 1.14; relative viability ([1]; first compound 0.8 µM): 1.09; relative viability ([1]; first compound 2.53 µM): 0.998; relative viability ([1]; first compound 8 µM): 0.933; relative viability ([4]; first compound 0.253 µM): 1.24; relative viability ([4]; first compound 0.8 µM): 1.26; relative viability ([4]; first compound 2.53 µM): 1.17; relative viability ([4]; first compound 8 µM): 1.13; relative viability ([2]; first compound 0.253 µM): 0.512; relative viability ([2]; first compound 0.8 µM): 0.515; relative viability ([2]; first compound 2.53 µM): 0.506; relative viability ([2]; first compound 8 µM): 0.465; relative viability ([3]; first compound 0.253 µM): 0.406; relative viability ([3]; first compound 0.8 µM): 0.346; relative viability ([3]; first compound 2.53 µM): 0.376; relative viability ([3]; first compound 8 µM): 0.381

Q: What does the source list for NCI-H2023?
A: relative viability ([1]; first compound 0.253 µM): 0.903; relative viability ([1]; first compound 0.8 µM): 1.02; relative viability ([1]; first compound 2.53 µM): 0.887; relative viability ([1]; first compound 8 µM): 0.939; relative viability ([4]; first compound 0.253 µM): 0.728; relative viability ([4]; first compound 0.8 µM): 0.667; relative viability ([4]; first compound 2.53 µM): 0.687; relative viability ([4]; first compound 8 µM): 0.589; relative viability ([2]; first compound 0.253 µM): 0.454; relative viability ([2]; first compound 0.8 µM): 0.426; relative viability ([2]; first compound 2.53 µM): 0.434; relative viability ([2]; first compound 8 µM): 0.399; relative viability ([3]; first compound 0.253 µM): 0.213; relative viability ([3]; first compound 0.8 µM): 0.213; relative viability ([3]; first compound 2.53 µM): 0.212; relative viability ([3]; first compound 8 µM): 0.198

Q: NCI-H2170 was tested. Which relative viability ([2]; first compound 0.253 µM) did it give?
A: 0.451

Q: And the relative viability ([2]; first compound 0.8 µM)?
A: 0.385

Q: And the relative viability ([2]; first compound 2.53 µM)?
A: 0.432

Q: What about the relative viability ([2]; first compound 8 µM) of the same cell line?
A: 0.418

Q: What about the relative viability ([5]; first compound 0.253 µM) of the same cell line?
A: 1.01

Q: What about the relative viability ([5]; first compound 0.8 µM) of the same cell line?
A: 0.898

Q: What about the relative viability ([5]; first compound 2.53 µM) of the same cell line?
A: 0.89

Q: And the relative viability ([5]; first compound 8 µM)?
A: 0.894

Q: And the relative viability ([3]; first compound 0.253 µM)?
A: 0.505

Q: And the relative viability ([3]; first compound 0.8 µM)?
A: 0.494

Q: And the relative viability ([3]; first compound 2.53 µM)?
A: 0.446

Q: What about the relative viability ([3]; first compound 8 µM) of the same cell line?
A: 0.473

Q: How did the relative viability ([1]; first compound 0.253 µM) turn out when NCI-H2228 was run?
A: 1.17

Q: And the relative viability ([1]; first compound 0.8 µM)?
A: 0.876

Q: And the relative viability ([1]; first compound 2.53 µM)?
A: 0.914

Q: And the relative viability ([1]; first compound 8 µM)?
A: 0.911

Q: And the relative viability ([4]; first compound 0.253 µM)?
A: 0.513

Q: And the relative viability ([4]; first compound 0.8 µM)?
A: 0.934

Q: And the relative viability ([4]; first compound 2.53 µM)?
A: 0.96

Q: What about the relative viability ([4]; first compound 8 µM) of the same cell line?
A: 0.604

Q: What about the relative viability ([2]; first compound 0.253 µM) of the same cell line?
A: 0.327

Q: And the relative viability ([2]; first compound 0.8 µM)?
A: 0.354

Q: And the relative viability ([2]; first compound 2.53 µM)?
A: 0.365

Q: What about the relative viability ([2]; first compound 8 µM) of the same cell line?
A: 0.383

Q: SK-LU-1 was tested. Which relative viability ([1]; first compound 0.253 µM) did it give?
A: 1.32

Q: What about the relative viability ([1]; first compound 0.8 µM) of the same cell line?
A: 1.03

Q: What about the relative viability ([1]; first compound 2.53 µM) of the same cell line?
A: 1.35

Q: And the relative viability ([1]; first compound 8 µM)?
A: 0.987

Q: What about the relative viability ([4]; first compound 0.253 µM) of the same cell line?
A: 1.05

Q: And the relative viability ([4]; first compound 0.8 µM)?
A: 1.19

Q: And the relative viability ([4]; first compound 2.53 µM)?
A: 1.09

Q: And the relative viability ([4]; first compound 8 µM)?
A: 1.02

Q: And the relative viability ([2]; first compound 0.253 µM)?
A: 0.582

Q: And the relative viability ([2]; first compound 0.8 µM)?
A: 0.57

Q: What about the relative viability ([2]; first compound 2.53 µM) of the same cell line?
A: 0.58

Q: What about the relative viability ([2]; first compound 8 µM) of the same cell line?
A: 0.534

Q: And the relative viability ([3]; first compound 0.253 µM)?
A: 0.689

Q: And the relative viability ([3]; first compound 0.8 µM)?
A: 0.626

Q: And the relative viability ([3]; first compound 2.53 µM)?
A: 0.757

Q: What about the relative viability ([3]; first compound 8 µM) of the same cell line?
A: 0.719

Q: SK-MES-1 was tested. Which relative viability ([4]; first compound 0.253 µM) did it give?
A: 1.12

Q: What about the relative viability ([4]; first compound 0.8 µM) of the same cell line?
A: 1.13

Q: And the relative viability ([4]; first compound 2.53 µM)?
A: 1.08

Q: And the relative viability ([4]; first compound 8 µM)?
A: 1.07

Q: What about the relative viability ([2]; first compound 0.253 µM) of the same cell line?
A: 0.689

Q: And the relative viability ([2]; first compound 0.8 µM)?
A: 0.733

Q: What about the relative viability ([2]; first compound 2.53 µM) of the same cell line?
A: 0.693

Q: What about the relative viability ([2]; first compound 8 µM) of the same cell line?
A: 0.61

Q: And the relative viability ([3]; first compound 0.253 µM)?
A: 0.341

Q: What about the relative viability ([3]; first compound 0.8 µM) of the same cell line?
A: 0.415

Q: What about the relative viability ([3]; first compound 2.53 µM) of the same cell line?
A: 0.413

Q: What about the relative viability ([3]; first compound 8 µM) of the same cell line?
A: 0.348

Q: Which results are given for SW 900?
A: relative viability ([2]; first compound 0.253 µM): 0.81; relative viability ([2]; first compound 0.8 µM): 0.634; relative viability ([2]; first compound 2.53 µM): 0.576; relative viability ([2]; first compound 8 µM): 0.455; relative viability ([5]; first compound 0.253 µM): 0.625; relative viability ([5]; first compound 0.8 µM): 0.619; relative viability ([5]; first compound 2.53 µM): 0.705; relative viability ([5]; first compound 8 µM): 0.624; relative viability ([3]; first compound 0.253 µM): 0.418; relative viability ([3]; first compound 0.8 µM): 0.376; relative viability ([3]; first compound 2.53 µM): 0.483; relative viability ([3]; first compound 8 µM): 0.405

Q: What does the source list for SW 1573?
A: relative viability ([1]; first compound 0.253 µM): 1.15; relative viability ([1]; first compound 0.8 µM): 1.18; relative viability ([1]; first compound 2.53 µM): 1.12; relative viability ([1]; first compound 8 µM): 0.997; relative viability ([4]; first compound 0.253 µM): 0.77; relative viability ([4]; first compound 0.8 µM): 0.898; relative viability ([4]; first compound 2.53 µM): 0.932; relative viability ([4]; first compound 8 µM): 0.754; relative viability ([2]; first compound 0.253 µM): 0.34; relative viability ([2]; first compound 0.8 µM): 0.449; relative viability ([2]; first compound 2.53 µM): 0.404; relative viability ([2]; first compound 8 µM): 0.363; relative viability ([3]; first compound 0.253 µM): 0.48; relative viability ([3]; first compound 0.8 µM): 0.535; relative viability ([3]; first compound 2.53 µM): 0.636; relative viability ([3]; first compound 8 µM): 0.417

Q: What does the source list for UMC-11?
A: relative viability ([1]; first compound 0.253 µM): 0.748; relative viability ([1]; first compound 0.8 µM): 0.726; relative viability ([1]; first compound 2.53 µM): 0.757; relative viability ([1]; first compound 8 µM): 0.904; relative viability ([4]; first compound 0.253 µM): 0.937; relative viability ([4]; first compound 0.8 µM): 0.983; relative viability ([4]; first compound 2.53 µM): 0.963; relative viability ([4]; first compound 8 µM): 0.967; relative viability ([2]; first compound 0.253 µM): 0.33; relative viability ([2]; first compound 0.8 µM): 0.319; relative viability ([2]; first compound 2.53 µM): 0.339; relative viability ([2]; first compound 8 µM): 0.324; relative viability ([3]; first compound 0.253 µM): 0.608; relative viability ([3]; first compound 0.8 µM): 0.638; relative viability ([3]; first compound 2.53 µM): 0.709; relative viability ([3]; first compound 8 µM): 0.593
